Data reported in US12297206B2, “Method for synthesizing furoimidazopyridine compound, polymorphic substance and polymorphic substance of salt” (HANGZHOU HIGHLIGHTLL PHARMACEUTICAL CO., LTD, priority 2019, dated 2025).
In brackets after ≈: the same amount, converted by molar mass. Like-named read-outs stand apart in the source and are kept apart here.

Legend:
[1] = Stability test 1: short-term solid state stability (high temperature and accelerated conditions); type: physicochemical
Protocol: For the open samples, the bottle cap was removed and the bottle neck was coverred with an aluminium-foil paper stabbed with pinholes to avoid cross contamination; for the closed samples, the bottled were coverred and sealed tightly. Samples were taken at weeks 1 and 2, respectively, the samples were diluted with a diluent (methanol/water (1/1) (v/v)), the liquid phase was injected according to the chromatographic conditions in Table 22 and the sample purities were determined.
The sample purities were calculated with an area normalization method.

[2] = Dynamic vapour sorption (DVS) moisture absorption; type: physicochemical
[3] = Stability test 1: short-term solid state stability (high temperature and accelerated conditions); type: physicochemical; conditions: for Stability study: crystal form: 2 weeks (XRPD, DSC); for Appearance in solid state stability test: within 2 weeks, 60° C. and 40° C./75% RH
physchem = conditions: 37 °C, thermodynamic from solid
Protocol: The samples were observed 5 minutes later, a quantity of sample or medium was supplemented to obtain mild suspension, and sampling was conduct at 30 minutes, 2 hour, 4 hours and 24 hours, respectively. The samples were centrifuged for 10 minutes at 12000 rpm to obtain the supernatant, the supernatant was diluted appropriately and was subjected to high performance liquid chromatography.
The sample concentration was calculated with an external standard method.

[4] = room temperature and 50° C., days 3, 7 and 14
Protocol: The sample bottles (wrapped with a tin foil paper to protect from light) in a room temperature system were placed on Labquaker rotator for rotating 360°; the samples in a high temperature system were placed in a 50° C. thermostatic shaking incubator and were slurried, part of the suspension samples were taken on days 3, 7 and 14, respectively and were centrifuged, solid residue was collected, the solvents were volatilized at room temperature (20-25° C.) to dryness, the solid was collected.

[5] = good solvents tetrahydrofuran, ethanol, isopropanol, methanol, acetone
Source text: If no solid was precipitated, the system was stirred with the bottle opened until solid was precipitated.

[6] = dissolved at about 50° C., transferred to −20° C.
Protocol: The temperature was maintained for 15 minutes, the solution was filterred with a 0.45 μm membrane when hot and was transferred to new sample bottles, the bottled were immediately transferred to a −20° C. refrigerator overnight, the solvent systems wherein solid was precipitated were centrifuged and the solid was collected, the solvent was volatilized at room temperature (20-25° C.) to dryness; the solvent systems wherein no solid was precipitated were placed to a −20° C. refrigerator until a large amount of solids precipitated.

[7] = dissolved at about 50° C., slowly cooled at 6° C./h
Protocol: The temperature was maintained for 15 minutes, the solution was filterred with a 0.45 μm membrane when hot and transferred to new sample bottles, slowly cooled to room temperature at 6° C./h overnight, the sample bottles were placed in a refrigerator (2-8° C.), the solvent systems wherein solid precipitated were centrifuged and the solid was collected, the solvent was volatilized at room temperature (20-25° C.) to dryness; the solvent systems wherein no solid precipitated were placed in a −20° C. refrigerator until a large amount of solids precipitated.

[8] = evaporated at room temperature
TYK2 = molecular target: T1, TYK2 (Homo sapiens, UniProt P29597); experiment: TYK2 biochemical test (33P-ATP filter binding kinase assay, Reaction Biology Corp); conditions: kinase reaction 2 hours at room temperature
T1 construct: purchased Reaction Biology Corp, Malvern, PA (contract assay service)
Protocol: A suitable amount of a compound of formula I was weighed for TYK2 biochemical test.
The test was conducted by Reaction Biology Corp, Malvern, PA (Anastassiadis et al. Nat Biotechnol. 2011; 29(11):1039-45). The steps are briefly described as follows.
Basic reaction buffer: 20 mM Hepes (pH 7.5), 10 mM MgCl2, 1 mM EGTA, 0.02% Brij35, 0.02 mg/ml BSA, 0.1 mM Na3VO4, 2 mM DTT and 1% DMSO. The required cofactors were added to each kinase reaction.
1. Preparing the designated substrate in the newly prepared basic reaction buffer;
2. Transferring the required cofactor to the above matrix solution;
3. Transferring the designated kinase to the substrate solution and mixing well slightly;
4. Transferring a compound of formula I in DMSO to a kinase reaction mixture with Acoustic technique (Echo550; nanoliter range), culturing for 20 minutes at room temperature;
5. Introducing ^33P-ATP (specific activity: 10 μCi/μl) to the reaction mixture to trigger a reaction;
6. Culturing at room temperature and conducting a kinase reaction for 2 hours;
7. Plotting the reaction on P81 ion exchange paper;
8. Testing the kinase activity with a filter binding assay.

JAK1 = JAK1 (Homo sapiens, UniProt P23458); conditions: as reported for WO2018067422A1; cited from earlier work
[9] = system: IL-6-induced STAT3 phosphorylation; conditions: as reported for WO2018067422A1; cited from earlier work
[10] = system: thrombopoietin-induced STAT3 phosphorylation; conditions: as reported for WO2018067422A1; cited from earlier work
[11] = fasted-state simulated intestinal fluid (FaSSIF), fassif
[12] = fed-state simulated intestinal fluid (FeSSIF), fessif
[13] = simulated gastric fluid (SGF), simulated gastric fluid

T1 sequence (P29597 whole entry): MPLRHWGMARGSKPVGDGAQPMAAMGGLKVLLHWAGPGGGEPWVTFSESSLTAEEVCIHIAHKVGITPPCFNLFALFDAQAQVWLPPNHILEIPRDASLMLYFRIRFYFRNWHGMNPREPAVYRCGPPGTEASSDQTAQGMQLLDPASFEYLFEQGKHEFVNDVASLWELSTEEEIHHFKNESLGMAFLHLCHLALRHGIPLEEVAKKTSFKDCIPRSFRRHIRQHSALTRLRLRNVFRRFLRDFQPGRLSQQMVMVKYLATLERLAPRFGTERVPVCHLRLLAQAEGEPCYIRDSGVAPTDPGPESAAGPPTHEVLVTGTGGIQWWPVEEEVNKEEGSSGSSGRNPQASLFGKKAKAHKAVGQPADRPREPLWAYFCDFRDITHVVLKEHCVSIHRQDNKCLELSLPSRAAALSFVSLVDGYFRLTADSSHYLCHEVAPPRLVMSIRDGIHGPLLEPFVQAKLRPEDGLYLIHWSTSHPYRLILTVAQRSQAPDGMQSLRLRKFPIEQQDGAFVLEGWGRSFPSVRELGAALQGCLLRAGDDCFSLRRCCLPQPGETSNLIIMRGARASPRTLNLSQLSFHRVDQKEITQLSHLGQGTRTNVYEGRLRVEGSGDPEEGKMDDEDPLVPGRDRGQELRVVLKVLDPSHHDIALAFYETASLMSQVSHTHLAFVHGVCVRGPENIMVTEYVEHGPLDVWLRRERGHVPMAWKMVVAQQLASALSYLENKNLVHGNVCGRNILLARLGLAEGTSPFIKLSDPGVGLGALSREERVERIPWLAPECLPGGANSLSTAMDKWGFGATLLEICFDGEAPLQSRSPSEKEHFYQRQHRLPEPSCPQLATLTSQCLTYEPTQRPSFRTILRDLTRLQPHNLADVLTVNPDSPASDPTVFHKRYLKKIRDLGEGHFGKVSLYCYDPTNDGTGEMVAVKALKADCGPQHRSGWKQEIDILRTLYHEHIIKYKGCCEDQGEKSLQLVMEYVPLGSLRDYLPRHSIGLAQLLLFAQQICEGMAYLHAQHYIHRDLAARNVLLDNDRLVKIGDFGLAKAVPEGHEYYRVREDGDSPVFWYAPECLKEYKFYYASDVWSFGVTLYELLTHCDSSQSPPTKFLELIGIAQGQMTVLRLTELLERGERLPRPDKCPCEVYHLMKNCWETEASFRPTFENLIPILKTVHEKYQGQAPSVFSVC
JAK1, sequence (P23458 whole entry, species assumed): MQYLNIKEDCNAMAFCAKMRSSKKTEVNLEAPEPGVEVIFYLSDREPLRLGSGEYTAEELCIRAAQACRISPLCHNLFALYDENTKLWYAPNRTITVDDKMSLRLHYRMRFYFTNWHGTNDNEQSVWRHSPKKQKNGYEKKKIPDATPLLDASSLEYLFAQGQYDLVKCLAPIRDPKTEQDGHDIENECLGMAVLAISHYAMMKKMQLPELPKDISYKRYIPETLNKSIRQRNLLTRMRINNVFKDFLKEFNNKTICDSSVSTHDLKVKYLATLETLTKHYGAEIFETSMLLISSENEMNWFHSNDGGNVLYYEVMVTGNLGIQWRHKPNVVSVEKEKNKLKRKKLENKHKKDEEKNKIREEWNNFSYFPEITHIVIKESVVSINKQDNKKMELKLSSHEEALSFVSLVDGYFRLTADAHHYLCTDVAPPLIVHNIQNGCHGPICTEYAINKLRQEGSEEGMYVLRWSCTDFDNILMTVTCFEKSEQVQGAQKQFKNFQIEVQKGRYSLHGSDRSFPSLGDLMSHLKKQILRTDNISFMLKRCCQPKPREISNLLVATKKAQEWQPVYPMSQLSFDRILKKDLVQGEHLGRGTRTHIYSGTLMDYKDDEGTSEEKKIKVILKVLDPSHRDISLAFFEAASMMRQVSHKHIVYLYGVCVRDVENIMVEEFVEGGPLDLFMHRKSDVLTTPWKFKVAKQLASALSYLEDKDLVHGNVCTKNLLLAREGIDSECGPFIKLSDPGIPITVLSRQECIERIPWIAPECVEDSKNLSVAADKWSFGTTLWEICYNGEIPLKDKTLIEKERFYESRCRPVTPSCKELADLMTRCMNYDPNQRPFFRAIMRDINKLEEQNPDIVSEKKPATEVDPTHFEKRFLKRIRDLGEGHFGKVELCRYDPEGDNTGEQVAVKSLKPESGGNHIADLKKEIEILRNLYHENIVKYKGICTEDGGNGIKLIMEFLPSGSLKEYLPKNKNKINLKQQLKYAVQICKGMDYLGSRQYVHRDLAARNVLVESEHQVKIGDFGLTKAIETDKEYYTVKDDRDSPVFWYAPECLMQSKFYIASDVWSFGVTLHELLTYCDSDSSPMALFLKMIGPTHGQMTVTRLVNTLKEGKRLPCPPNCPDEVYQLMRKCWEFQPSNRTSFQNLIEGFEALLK

Structure (SMILES): Cc1nc2cnc3ccoc3c2n1[C@H]1CC[C@H](CC#N)OC1
- Stability study (purity) ([1]; 0 day): 99.80 Area %
- Stability study (purity) ([1]; 40° C./75% RH, open, 1 week): 99.82 Area %
- Stability study (purity) ([1]; 40° C./75% RH, open, 2 weeks): 99.82 Area %
- Stability study (purity) ([1]; 60° C., sealed, 1 week): 99.81 Area %
- Stability study (purity) ([1]; 60° C., sealed, 2 weeks): 99.83 Area %
- Crystal form after moisture absorption (XRPD before and after the DVS test) [2]: the crystal form changes
- Weight gain by moisture absorption (DVS) ([2]; from 0% RH to 95% RH, 25° C.): 13.86%
- Stability study: crystal form ([3]; 40° C./75% RH, open): Change
- Stability study: crystal form ([3]; 60° C., sealed): Change
- Appearance in solid state stability test [3]: didn't change
- solubility at 30 min (physchem; [11]): 2590 µg/mL (≈ 8.74 mM)
- solubility at 2 h (physchem; [11]): 1860 µg/mL (≈ 6.28 mM)
- solubility at 4 h (physchem; [11]): 1810 µg/mL (≈ 6.11 mM)
- solubility at 24 h (physchem; [11]): 1560 µg/mL (≈ 5.26 mM)
- solubility at 30 min (physchem; [12]): 2910 µg/mL (≈ 9.82 mM)
- solubility at 2 h (physchem; [12]): 2200 µg/mL (≈ 7.42 mM)
- solubility at 4 h (physchem; [12]): 2610 µg/mL (≈ 8.81 mM)
- solubility at 24 h (physchem; [12]): 3290 µg/mL (≈ 11.1 mM)
- solubility at 30 min (physchem; [13]): 16400 µg/mL (≈ 55.3 mM)
- solubility at 2 h (physchem; [13]): 17000 µg/mL (≈ 57.2 mM)
- solubility at 4 h (physchem; [13]): 15200 µg/mL (≈ 51.2 mM)
- solubility at 24 h (physchem; [13]): 16400 µg/mL (≈ 55.4 mM)
- solubility at 30 min (physchem; water): 1350 µg/mL (≈ 4.56 mM)
- solubility at 2 h (physchem; water): 1730 µg/mL (≈ 5.84 mM)
- solubility at 4 h (physchem; water): 1490 µg/mL (≈ 5.03 mM)
- solubility at 24 h (physchem; water): 1430 µg/mL (≈ 4.83 mM)

Structure (SMILES): Cc1nc2cnc3ccoc3c2n1C1CCC(CC#N)OC1.O=P(O)(O)O (stereo not shown)
- Stability study (purity) ([1]; 0 day): 99.34 Area %
- Stability study (purity) ([1]; 40° C./75% RH, open, 1 week): 99.33 Area %
- Stability study (purity) ([1]; 40° C./75% RH, open, 2 weeks): 99.35 Area %
- Stability study (purity) ([1]; 60° C., sealed, 1 week): 99.32 Area %
- Stability study (purity) ([1]; 60° C., sealed, 2 weeks): 99.16 Area %
- Crystal form after moisture absorption (XRPD before and after the DVS test) [2]: doesn't change
- Weight gain by moisture absorption (DVS) ([2]; at 70% RH): 1.95%
- Weight gain by moisture absorption (DVS) ([2]; at a humidity of 85% RH): 0.72%
- Weight gain by moisture absorption (DVS) ([2]; from 0% RH to 95% RH, 25° C.): 6.5%
- Stability study: crystal form ([3]; 40° C./75% RH, open): Unchange
- Stability study: crystal form ([3]; 60° C., sealed): Unchange
- Appearance in solid state stability test [3]: didn't change

Structure (SMILES): Cc1nc2cnc3ccoc3c2n1C1CCC(CC#N)OC1.Cc1nc2cnc3ccoc3c2n1C1CCC(CC#N)OC1.O=C(O)C(O)C(O)C(=O)O (stereo not shown)
- Stability study (purity) ([1]; 0 day): 99.22 Area %
- Stability study (purity) ([1]; 40° C./75% RH, open, 1 week): 99.31 Area %
- Stability study (purity) ([1]; 40° C./75% RH, open, 2 weeks): 99.36 Area %
- Stability study (purity) ([1]; 60° C., sealed, 1 week): 99.34 Area %
- Stability study (purity) ([1]; 60° C., sealed, 2 weeks): 99.36 Area %
- Crystal form after moisture absorption (XRPD before and after the DVS test) [2]: doesn't change
- Weight gain by moisture absorption (DVS) ([2]; at a humidity of 80% RH): 1.80%
- Weight gain by moisture absorption (DVS) ([2]; from 0% RH to 95% RH, 25° C.): 6.85%
- Crystal form after slurrying ([4]; Acetone): Crystal form O
- Crystal form after slurrying ([4]; Ethanol): Crystal form O
- Crystal form after slurrying ([4]; Ethyl acetate): Crystal form O
- Crystal form after slurrying ([4]; Isopropanol): Crystal form O
- Crystal form after slurrying ([4]; Methanol): Crystal form O
- Crystal form after slurrying ([4]; Methyl tert-butyl ether): Crystal form O
- Crystal form after slurrying ([4]; N-heptane): Crystal form O
- Crystal form after slurrying ([4]; Tetrahydrofuran): Crystal form O
- Crystal form after slurrying ([4]; Toluene): Crystal form O
- Product crystal form ([5]; Anti-solvent Ethyl acetate): Crystal form O
- Product crystal form ([5]; Anti-solvent Methyl tert-butyl ether): Crystal form O
- Product crystal form ([5]; Anti-solvent N-heptane): Crystal form O
- Product crystal form ([5]; Anti-solvent Toluene): Crystal form O
- Crystal form of precipitated solid ([6]; Ethanol): Crystal form O
- Crystal form of precipitated solid ([6]; Isopropanol): Crystal form O
- Crystal form of precipitated solid ([6]; Methanol): Crystal form O
- Crystal form of precipitated solid ([7]; Ethanol): Crystal form O
- Crystal form of precipitated solid ([7]; Isopropanol): Crystal form O
- Crystal form of precipitated solid ([8]; Acetone): Crystal form O
- Crystal form of precipitated solid ([8]; Ethanol): Crystal form O
- Crystal form of precipitated solid ([8]; Isopropanol): Crystal form O
- Crystal form of precipitated solid ([8]; Methanol): Crystal form O
- Crystal form of precipitated solid ([8]; Tetrahydrofuran): Crystal form O
- Stability study: crystal form ([3]; 40° C./75% RH, open): Unchange
- Stability study: crystal form ([3]; 60° C., sealed): Unchange
- Appearance in solid state stability test [3]: didn't change

Structure (SMILES): Br.Cc1nc2cnc3ccoc3c2n1C1CCC(CC#N)OC1 (stereo not shown)
- Crystal form after moisture absorption (XRPD before and after the DVS test) [2]: changed
- Weight gain by moisture absorption (DVS) ([2]; from 0% RH to 95% RH, 25° C.): 11.84%

Structure (SMILES): Cc1nc2cnc3ccoc3c2n1C1CCC(CC#N)OC1.O=S(=O)(O)c1ccccc1 (stereo not shown)
- Crystal form after moisture absorption (XRPD before and after the DVS test) [2]: doesn't change
- Weight gain by moisture absorption (DVS) ([2]; at 70% RH): 0.97%
- Weight gain by moisture absorption (DVS) ([2]; at a humidity of 85% RH): 0.54%
- Weight gain by moisture absorption (DVS) ([2]; from 0% RH to 95% RH, 25° C.): 4.6%

Structure (SMILES): Cc1nc2cnc3ccoc3c2n1[C@H]1CC[C@H](CC#N)OC1 [compound of formula I, 2-[(2R,5S)-5-[2-methylfuro[3,2-b]imidazo[4,5-d]pyridin-1-yl]tetrahydropyran-2-yl] acetonitrile]
- IC50 (TYK2): < 10 nM
- JAK1 inhibition (JAK1): potent and selective JAK1 inhibitor
- Inhibition of IL-6-induced STAT3 phosphorylation [9]: selective inhibition
- Inhibition of thrombopoietin-induced STAT3 phosphorylation [10]: does not show selective inhibition
